Experimental data: the Kinase Knowledgebase extract (Sharma et al. 2016)

Legend:
PIK3CD (Human) = PIK3CD (Human) (UniProt O00329); test: Assessment of PIK3CD Kinase Activity
PIK3CG (human) = PIK3CG (human) (UniProt P48736); test: Assessment of PIK3CG Kinase Activity
PIK3CB (Human) = PIK3CB (Human) (UniProt P42338); test: Assessment of PIK3CB Kinase Activity
PIK3CB (Human), sequence (P42338 whole entry, looked up): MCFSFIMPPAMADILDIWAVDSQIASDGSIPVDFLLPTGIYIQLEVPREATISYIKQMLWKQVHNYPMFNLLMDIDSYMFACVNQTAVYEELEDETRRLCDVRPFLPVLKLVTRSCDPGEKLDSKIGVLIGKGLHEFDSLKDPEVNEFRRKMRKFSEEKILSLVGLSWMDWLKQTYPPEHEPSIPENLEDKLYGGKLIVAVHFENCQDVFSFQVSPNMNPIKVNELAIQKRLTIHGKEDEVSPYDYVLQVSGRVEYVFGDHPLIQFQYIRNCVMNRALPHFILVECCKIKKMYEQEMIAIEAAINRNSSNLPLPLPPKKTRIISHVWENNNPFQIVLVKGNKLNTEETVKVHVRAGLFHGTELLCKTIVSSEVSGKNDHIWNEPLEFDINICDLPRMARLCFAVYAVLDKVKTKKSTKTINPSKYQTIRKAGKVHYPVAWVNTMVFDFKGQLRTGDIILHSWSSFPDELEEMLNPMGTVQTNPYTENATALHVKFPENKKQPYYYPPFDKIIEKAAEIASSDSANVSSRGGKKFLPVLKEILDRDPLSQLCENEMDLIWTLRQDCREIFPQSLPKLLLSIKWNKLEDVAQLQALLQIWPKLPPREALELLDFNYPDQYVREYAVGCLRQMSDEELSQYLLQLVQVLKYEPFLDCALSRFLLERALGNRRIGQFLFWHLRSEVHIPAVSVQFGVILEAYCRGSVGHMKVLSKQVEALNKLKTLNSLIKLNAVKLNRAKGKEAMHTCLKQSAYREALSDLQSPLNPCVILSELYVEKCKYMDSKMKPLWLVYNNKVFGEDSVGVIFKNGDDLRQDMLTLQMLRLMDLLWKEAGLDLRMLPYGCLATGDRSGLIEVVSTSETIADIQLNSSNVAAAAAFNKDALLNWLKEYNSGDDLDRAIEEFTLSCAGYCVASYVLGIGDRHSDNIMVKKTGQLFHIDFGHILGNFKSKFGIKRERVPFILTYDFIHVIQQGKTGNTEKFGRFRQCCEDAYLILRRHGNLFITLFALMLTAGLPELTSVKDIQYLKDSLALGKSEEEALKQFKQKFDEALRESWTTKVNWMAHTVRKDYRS

PIK3CD (Human), sequence (O00329 whole entry, looked up): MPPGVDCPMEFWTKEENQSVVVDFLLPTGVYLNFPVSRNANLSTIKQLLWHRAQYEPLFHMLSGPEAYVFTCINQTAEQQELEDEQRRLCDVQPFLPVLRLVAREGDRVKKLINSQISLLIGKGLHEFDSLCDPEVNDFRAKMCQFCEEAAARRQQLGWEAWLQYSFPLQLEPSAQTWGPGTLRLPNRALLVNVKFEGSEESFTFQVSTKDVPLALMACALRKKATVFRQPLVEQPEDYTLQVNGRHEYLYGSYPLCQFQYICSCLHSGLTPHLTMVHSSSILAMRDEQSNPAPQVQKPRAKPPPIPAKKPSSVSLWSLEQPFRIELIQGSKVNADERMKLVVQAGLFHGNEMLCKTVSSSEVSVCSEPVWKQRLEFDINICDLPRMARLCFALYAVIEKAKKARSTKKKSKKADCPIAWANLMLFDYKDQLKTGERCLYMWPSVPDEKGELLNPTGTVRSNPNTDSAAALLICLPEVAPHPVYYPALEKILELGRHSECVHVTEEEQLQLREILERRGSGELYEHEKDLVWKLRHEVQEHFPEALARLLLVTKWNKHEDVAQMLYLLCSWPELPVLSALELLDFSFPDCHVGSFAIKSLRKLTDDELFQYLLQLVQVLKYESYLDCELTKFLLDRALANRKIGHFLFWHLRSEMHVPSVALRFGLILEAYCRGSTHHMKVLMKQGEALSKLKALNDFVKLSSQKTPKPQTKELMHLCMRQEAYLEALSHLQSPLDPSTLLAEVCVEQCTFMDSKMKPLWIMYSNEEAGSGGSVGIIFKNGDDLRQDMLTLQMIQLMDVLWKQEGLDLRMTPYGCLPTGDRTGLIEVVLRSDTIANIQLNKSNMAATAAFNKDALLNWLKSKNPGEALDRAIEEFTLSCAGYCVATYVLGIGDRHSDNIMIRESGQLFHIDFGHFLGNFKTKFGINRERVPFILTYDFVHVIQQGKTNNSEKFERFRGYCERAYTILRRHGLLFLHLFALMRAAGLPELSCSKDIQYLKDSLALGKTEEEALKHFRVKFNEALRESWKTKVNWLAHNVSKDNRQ
PIK3CG (human), sequence (P48736 whole entry, looked up): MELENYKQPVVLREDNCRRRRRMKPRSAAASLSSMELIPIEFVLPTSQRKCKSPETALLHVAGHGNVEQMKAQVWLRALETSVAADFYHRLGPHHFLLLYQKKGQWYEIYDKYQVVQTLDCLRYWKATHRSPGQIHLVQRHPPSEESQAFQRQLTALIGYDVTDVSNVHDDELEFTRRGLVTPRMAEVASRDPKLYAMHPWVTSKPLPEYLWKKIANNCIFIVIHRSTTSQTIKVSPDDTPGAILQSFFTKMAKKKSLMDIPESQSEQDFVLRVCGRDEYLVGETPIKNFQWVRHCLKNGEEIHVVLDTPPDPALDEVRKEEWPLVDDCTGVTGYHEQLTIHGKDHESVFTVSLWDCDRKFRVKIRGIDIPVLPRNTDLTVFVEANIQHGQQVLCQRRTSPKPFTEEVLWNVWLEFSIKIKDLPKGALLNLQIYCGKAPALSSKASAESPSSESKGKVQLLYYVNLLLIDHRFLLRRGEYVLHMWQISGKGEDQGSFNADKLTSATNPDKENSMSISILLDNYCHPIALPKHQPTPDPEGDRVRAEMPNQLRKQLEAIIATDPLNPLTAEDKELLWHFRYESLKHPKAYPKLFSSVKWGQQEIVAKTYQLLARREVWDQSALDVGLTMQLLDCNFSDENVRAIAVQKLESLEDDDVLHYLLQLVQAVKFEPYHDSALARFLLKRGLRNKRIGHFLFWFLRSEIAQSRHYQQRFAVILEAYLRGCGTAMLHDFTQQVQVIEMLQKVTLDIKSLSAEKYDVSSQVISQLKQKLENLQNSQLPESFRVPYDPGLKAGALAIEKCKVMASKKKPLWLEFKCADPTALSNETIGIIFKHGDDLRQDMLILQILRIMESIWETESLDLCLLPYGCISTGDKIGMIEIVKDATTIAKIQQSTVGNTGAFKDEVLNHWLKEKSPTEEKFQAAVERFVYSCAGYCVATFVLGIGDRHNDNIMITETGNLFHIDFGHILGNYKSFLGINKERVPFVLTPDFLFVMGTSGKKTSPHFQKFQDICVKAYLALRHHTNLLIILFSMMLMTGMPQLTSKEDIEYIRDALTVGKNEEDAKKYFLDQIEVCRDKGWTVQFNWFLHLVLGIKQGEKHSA

Structure (SMILES) | IC50 (PIK3CD (Human)) [nM] | IC50 (PIK3CG (human)) [nM] | IC50 (PIK3CB (Human)) [nM]
C[C@H](Nc1ncnc2cccnc12)c1cc2cccc(-c3cnn(C)c3)c2c(=O)n1C1CC1 | < 100 | < 100 | 
C[C@H](Nc1nc(N)nc2cccnc12)c1cc2cccc(-c3cnn(C)c3)c2c(=O)n1-c1cccc(F)c1 | < 100 | < 100 | > 10000
C[C@H](Nc1nc(N)nc2cccnc12)c1cc2cccc(C(F)(F)F)c2c(=O)n1-c1ccccc1 | < 100 | < 100 | 100 to 1000
C[C@H](Nc1ncnc2ccnn12)c1cc2cccc(Cl)c2c(=O)n1-c1ccccc1 | < 100 | < 100 | 100 to 1000
C[C@H](Nc1ccnc2scnc12)c1cc2cccc(C(F)(F)F)c2c(=O)n1-c1ccccc1 | < 100 | < 100 | 100 to 1000
C[C@H](Nc1nc(N)nc2cccnc12)c1cc2cccc(-c3ccnnc3)c2c(=O)n1-c1cccc(F)c1 | < 100 | < 100 | > 10000
C[C@H](Nc1ccnc2cccnc12)c1cc2cccc(Cl)c2c(=O)n1-c1ccccc1 | < 100 | < 100 | 100 to 1000
C[C@H](Nc1ccnn2ccnc12)c1cc2cccc(Cl)c2c(=O)n1-c1cccc(F)c1 | < 100 | < 100 | 100 to 1000
C[C@H](Nc1nc(N)nc2cccnc12)c1cc2cccc(-c3cnn(C)c3)c2c(=O)n1-c1ccccc1 | < 100 | < 100 | > 10000
C[C@H](Nc1ncnn2ccnc12)c1cc2cccc(Cl)c2c(=O)n1-c1ccccc1 | < 100 | < 100 | 100 to 1000
C[C@H](Nc1nc(N)nc2cccnc12)c1cc2cccc(-c3ccnnc3)c2c(=O)n1-c1ccccc1 | < 100 | < 100 | 
C[C@H](Nc1ccnc2ccnn12)c1cc2cccc(-c3cnn(C)c3)c2c(=O)n1-c1cccc(F)c1 | < 100 | 100 to 1000 | > 10000
Cc1nn(C)cc1-c1cccc2cc([C@H](C)Nc3ncnc4cccnc34)n(-c3ccccc3)c(=O)c12 | < 100 | < 100 | > 10000
C[C@H](Nc1nc(N)nc2cccnc12)c1nc2cccc(-c3ccnnc3)c2c(=O)n1-c1ccccc1 | < 100 | < 100 | > 10000
C[C@H](Nc1ncnn2ccnc12)c1cc2cccc(C(F)(F)F)c2c(=O)n1-c1ccccc1 | < 100 | < 100 | 100 to 1000
C[C@H](Nc1ccnc2ccnn12)c1cc2cccc(Cl)c2c(=O)n1-c1cccc(F)c1 | < 100 | < 100 | 
C[C@H](Nc1ncnc2cccnc12)c1cc2cccc(C(F)(F)F)c2c(=O)n1-c1cccc(F)c1 | < 100 | < 100 | 
C[C@H](Nc1ccnc2ccnn12)c1cc2cccc(-c3cnn(C)c3)c2c(=O)n1C1CC1 | < 100 |  | 
C[C@H](Nc1ncnc(N)c1C#N)c1cc2cccc(C(F)(F)F)c2c(=O)n1-c1cccc(F)c1 | < 100 | < 100 | 100 to 1000
C[C@H](Nc1ncnc2[nH]cc(C(N)=O)c12)c1cc2cccc(C(F)(F)F)c2c(=O)n1-c1ccccc1 | < 100 | < 100 | 100 to 1000
C[C@H](Nc1ncnc2cccnc12)c1cc2cccc(Cl)c2c(=O)n1-c1ccccc1 | < 100 | < 100 | 100 to 1000
C[C@H](Nc1ccnn2ccnc12)c1cc2cccc(-c3cnn(C)c3)c2c(=O)n1-c1ccccc1 | < 100 | < 100 | 
C[C@H](Nc1ncnc2cccnc12)c1cc2cccc(-c3ccc(N)nc3)c2c(=O)n1-c1ccccc1 | < 100 | < 100 | > 10000
C[C@H](Nc1ccnc2ccnn12)c1cc2cccc(C(F)(F)F)c2c(=O)n1-c1ccccc1 | < 100 | < 100 | 100 to 1000

Structure (SMILES) | IC50 (PIK3CD (Human)) [nM] | IC50 (PIK3CG (human)) [nM] | IC50 (PIK3CB (Human)) [nM]
C[C@H](Nc1ccnn2ccnc12)c1cc2scc(Cl)c2c(=O)n1-c1ccccc1 | < 100 | < 100 | 100 to 1000
C[C@H](Nc1ncnc2cccnc12)c1cc2scc(Cl)c2c(=O)n1-c1ccccc1 | < 100 | < 100 | 100 to 1000
C[C@H](Nc1ccnn2ccnc12)c1cc2cccc(C(F)(F)F)c2c(=O)n1-c1cccc(F)c1 | < 100 | < 100 | 
C[C@H](Nc1ncnn2ccnc12)c1cc2cccc(Cl)c2c(=O)n1-c1cccc(F)c1 | < 100 | < 100 | 
C[C@H](Nc1ccnc2ccnn12)c1cc2cccc(Cl)c2c(=O)n1C1CC1 | < 100 | 100 to 1000 | 100 to 1000
C[C@H](Nc1ccnn2ccnc12)c1cc2cccc(Cl)c2c(=O)n1C1CC1 | < 100 | 100 to 1000 | 100 to 1000
C[C@H](Nc1ncnc2scnc12)c1cc2cccc(C(F)(F)F)c2c(=O)n1-c1cccc(F)c1 | < 100 | < 100 | 100 to 1000
COc1ccc(-c2cccc3cc([C@H](C)Nc4ncnc5cccnc45)n(-c4ccccc4)c(=O)c23)cn1 | < 100 | < 100 | > 10000
C[C@H](Nc1ccnn2ccnc12)c1cc2cccc(C(F)(F)F)c2c(=O)n1-c1ccccc1 | < 100 | < 100 | 100 to 1000
C[C@H](Nc1nc(N)nc2[nH]cnc12)c1cc2cccc(C(F)(F)F)c2c(=O)n1-c1cccc(F)c1 | < 100 | < 100 | 100 to 1000
C[C@H](Nc1nc(N)ncc1C#N)c1cc2cccc(C(F)(F)F)c2c(=O)n1-c1cccc(F)c1 | < 100 | < 100 | 100 to 1000
C[C@H](Nc1ncnc2scnc12)c1cc2scc(C(F)(F)F)c2c(=O)n1-c1ccccc1 | < 100 | < 100 | 100 to 1000
C[C@H](Nc1nc(N)nc2scnc12)c1cc2cccc(C(F)(F)F)c2c(=O)n1-c1ccccc1 | < 100 | < 100 | 
C[C@H](Nc1ccnc2ccnn12)c1cc2cccc(-c3cnn(C)c3)c2c(=O)n1-c1ccccc1 | < 100 | < 100 | 
C[C@H](Nc1ccnc2cccnc12)c1cc2cccc(Cl)c2c(=O)n1-c1cccc(F)c1 | < 100 | < 100 | 
CNc1nc(N[C@@H](C)c2cc3cccc(Cl)c3c(=O)n2-c2ccccc2)c2ncccc2n1 | < 100 | < 100 | 
C[C@H](Nc1ncnc2cccnc12)c1cc2cc(F)ccc2c(=O)n1-c1ccccc1 | 100 to 1000 |  | > 10000
C[C@H](Nc1ncnc2cccnc12)c1cc2c(F)cccc2c(=O)n1-c1ccccc1 | < 100 | < 100 | 
C[C@H](Nc1ncnc2[nH]cc(F)c12)c1cc2cccc(C(F)(F)F)c2c(=O)n1-c1ccccc1 | < 100 | < 100 | 
C[C@H](Nc1nc(N)nc2cccnc12)c1cc2cccc(-c3cncnc3)c2c(=O)n1-c1ccccc1 | < 100 | < 100 | 
Cc1cccc2cc([C@H](C)Nc3ncnc4cccnc34)n(-c3cccc(F)c3)c(=O)c12 | < 100 | < 100 | 
C[C@H](Nc1ccnn2ccnc12)c1cc2cccc(-c3cnn(C)c3)c2c(=O)n1C1CC1 | < 100 | 100 to 1000 | 
C[C@H](Nc1ncnc2cccnc12)c1cc2ccc(F)cc2c(=O)n1-c1ccccc1 | < 100 | < 100 | 
C[C@H](Nc1ccnc2cccnc12)c1cc2cccc(-c3cnn(C)c3)c2c(=O)n1-c1ccccc1 | < 100 | < 100 | 
